Results: article doi:10.1101/2023.10.24.563163v2, “Targeting cancer with small molecule pan-KRAS degraders” (biorxiv, 2024)
Read-outs that look alike come from different tables or passages of the source.

Legend:
[1] = tested on: NCI-H358; test: cells; set-up: DUSP6 modulation; details: Homo sapiens, NCI-H358, 6 h; read-out: IC50 DUSP6
Description: (§1) Next, we set out to test the ability of a single pan-KRAS degrading molecule, compound 4, to selectively suppress oncogenic signaling and proliferation in cancer cell lines driven by diverse KRAS mutants. To this end, we first confirmed degradation of KRAS by compound 4 in KRAS-dependent (GP2d, SW620 and NCI-H358 expressing KRAS^G12D, - G12V or -G12C, respectively) as well as in KRAS independent (A-375, HEK293) cell lines (Fig. 3A, fig. S4A). […] Both inhibition and degradation repressed the established markers of MAPK signaling pERK (fig. S4B-D) and DUSP6 (Fig. 3B, fig. S4E) in KRAS dependent cell lines. […] Neither degradation nor inhibition had appreciable antiproliferative effects in the KRAS independent cell lines A-375 and HEK293 (Fig. 3C, fig. S4F).

[2] = tested on: NCI-H358; test: cells; set-up: Inhibition of cell proliferation, 5 days; details: Homo sapiens, NCI-H358, 120 h; read-out: IC50 Proliferation NCI-H358
Description: as §1, with “S4F). […] Pan-KRAS degradation impacts MAPK signaling and cancer cell proliferation.” for “S4F).”

[3] = tested on: NCI-H358; test: cells; set-up: pERK levels by capillary electrophoresis; details: Homo sapiens, NCI-H358, 6 h
Experimental: (§2) Protein Detection by Capillary Electrophoresis Cells (50 000) were seeded the day before treatment into 96-well clear-flat bottom plates and incubated overnight (37 °C, humidified tissue culture incubator, 5% CO2). Compounds were added from DMSO stock solution using a digital dispenser and cells are incubated at 37 °C as specified (24 hours for KRAS degradation, 6 hours for determination of pERK levels). At the end of the incubation, medium was removed, cells washed with ice cold PBS, PBS removed and 50 µL lysis buffer (Meso Scale Discovery #R60TX-2) supplemented with 1:100 protease inhibitor solution, 1:100 phosphatase inhibitor I, 1:100 phosphatase inhibitor II (Meso Scale Discovery #R70AA-1), 0.5 µL/mL Benzonase (Novagen #70664-3) and 10 mM dithiothreitol added to each well. Plates with lysis buffer were immediately transferred to -80 °C freezer for at least 2 hours and then thawed on ice. Lysates were transferred to a 96 well V-bottom plate and insoluble debris was pelleted by centrifugation for 20 min. at 4 000 rpm. 40 µL of the supernatant were transferred to a fresh Eppendorf PCR plate. Analysis of protein levels was conducted using the Wes System, ProteinSimple (https://www.bio-techne.com/) as specified by the manufacturer. Briefly, Wes Master Mix (12-230 kDa WES Separation Module, 8 × 25 capillary cartridges, ProteinSimple #SM-W004) and molecular weight markers were prepared as specified in the manufacturer’s recommendations. To detect primary antibodies, anti-rabbit (Protein Simple #DM-001) or anti-mouse (Protein Simple #DM-002) detection modules were used. 7.2 µL lysate + 1.8 µL master mix were combined and heated to 95 °C for 5 min. Th

[4] = target: T1, KRAS (Homo sapiens, UniProt P01116, C118S/G12V); test: SPR, biotinylated KRAS immobilised; format: binding
T1 construct: residues 1-169, C118S background; His6 tag removed, E. coli; biotinylated for SPR

[5] = target: T2, KRAS^WT (Homo sapiens, UniProt P01116); test: cell-based; set-up: KRAS degradation by capillary electrophoresis immunodetection; details: A-375; read-out: Dmax 24 h A375 [%]
T2 construct: endogenous wild type
Experimental: as §2, with “[…] Next, we set out to test the ability of a single pan-KRAS degrading molecule, compound 4, to selectively suppress oncogenic signaling and proliferation in cancer cell lines driven by diverse KRAS mutants. To this end, we first confirmed degradation of KRAS by compound 4 in KRAS-dependent (GP2d, SW620 and NCI-H358 expressing KRAS^G12D, - G12V or -G12C, respectively) as well as in KRAS independent (A-375, HEK293) cell lines (Fig. 3A, fig. S4A). […] Both inhibition and degradation repressed the established markers of MAPK signaling pERK (fig. S4B-D) and DUSP6 (Fig. 3B, fig. S4E) in KRAS dependent cell lines. […] Neither degradation nor inhibition had appreciable antiproliferative effects in the KRAS independent cell lines A-375 and HEK293 (Fig. 3C, fig. S4F).” for “Th”

[6] = tested on: GP2d; test: cells; set-up: DUSP6 modulation; details: GP2d, 6 h; read-out: IC50 DUSP6
Description: as §1

[7] = tested on: SW620; test: cells; set-up: DUSP6 modulation; details: Homo sapiens, SW-620, 6 h; read-out: IC50 DUSP6
Description: as §1

[8] = tested on: GP2d; test: cells; set-up: Inhibition of cell proliferation, 5 days; details: 120 h, read-out: IC50 Proliferation GP2d
Description: as §1, with “S4F). […] Pan-KRAS degradation impacts MAPK signaling and cancer cell proliferation.” for “S4F).”

[9] = tested on: HEK293; test: cells; set-up: pERK levels by capillary electrophoresis; details: Homo sapiens, HEK293, 6 h
Experimental: as §2

[10] = tested on: GP2d; test: cells; set-up: pERK levels by capillary electrophoresis; details: GP2d, 6 h
Experimental: as §2

[11] = tested on: A375; test: cells; set-up: pERK levels by capillary electrophoresis; details: Homo sapiens, A-375, 6 h
Experimental: as §2

[12] = tested on: SW620; test: cells; set-up: pERK levels by capillary electrophoresis; details: Homo sapiens, SW-620, 6 h
Experimental: as §2

[13] = target: KRAS^G12V (Homo sapiens, UniProt P01116, G12V); test: cell-based; set-up: endogenous; KRAS degradation by capillary electrophoresis immunodetection; details: SW-620; read-out: Dmax 24 h SW620 [%]
Experimental: as §2, with “[…] Next, we set out to test the ability of a single pan-KRAS degrading molecule, compound 4, to selectively suppress oncogenic signaling and proliferation in cancer cell lines driven by diverse KRAS mutants. To this end, we first confirmed degradation of KRAS by compound 4 in KRAS-dependent (GP2d, SW620 and NCI-H358 expressing KRAS^G12D, - G12V or -G12C, respectively) as well as in KRAS independent (A-375, HEK293) cell lines (Fig. 3A, fig. S4A). […] Both inhibition and degradation repressed the established markers of MAPK signaling pERK (fig. S4B-D) and DUSP6 (Fig. 3B, fig. S4E) in KRAS dependent cell lines. […] Neither degradation nor inhibition had appreciable antiproliferative effects in the KRAS independent cell lines A-375 and HEK293 (Fig. 3C, fig. S4F).” for “Th”

[14] = target: KRAS^G12D (Homo sapiens, UniProt P01116, G12D); test: cell-based; set-up: endogenous; KRAS degradation by capillary electrophoresis immunodetection; details: GP2d; read-out: Dmax 24 h GP2d [%]
Experimental: as §2, with “[…] Next, we set out to test the ability of a single pan-KRAS degrading molecule, compound 4, to selectively suppress oncogenic signaling and proliferation in cancer cell lines driven by diverse KRAS mutants. To this end, we first confirmed degradation of KRAS by compound 4 in KRAS-dependent (GP2d, SW620 and NCI-H358 expressing KRAS^G12D, - G12V or -G12C, respectively) as well as in KRAS independent (A-375, HEK293) cell lines (Fig. 3A, fig. S4A). […] Both inhibition and degradation repressed the established markers of MAPK signaling pERK (fig. S4B-D) and DUSP6 (Fig. 3B, fig. S4E) in KRAS dependent cell lines. […] Neither degradation nor inhibition had appreciable antiproliferative effects in the KRAS independent cell lines A-375 and HEK293 (Fig. 3C, fig. S4F).” for “Th”

[15] = tested on: HEK293; test: cells; set-up: Inhibition of cell proliferation, 5 days; details: Homo sapiens, HEK293, 120 h; read-out: IC50 Proliferation HEK293
Description: as §1, with “S4F). […] Pan-KRAS degradation impacts MAPK signaling and cancer cell proliferation.” for “S4F).”

[16] = tested on: A375; test: cells; set-up: Inhibition of cell proliferation, 5 days; details: Homo sapiens, A-375, 120 h; read-out: IC50 Proliferation A375
Description: as §1, with “S4F). […] Pan-KRAS degradation impacts MAPK signaling and cancer cell proliferation.” for “S4F).”

[17] = tested on: SW620; test: cells; set-up: Inhibition of cell proliferation, 5 days; details: Homo sapiens, SW-620, 120 h; read-out: IC50 Proliferation SW620
Description: as §1, with “S4F). […] Pan-KRAS degradation impacts MAPK signaling and cancer cell proliferation.” for “S4F).”

T1 sequence (P01116 1-169 G12V/C118S): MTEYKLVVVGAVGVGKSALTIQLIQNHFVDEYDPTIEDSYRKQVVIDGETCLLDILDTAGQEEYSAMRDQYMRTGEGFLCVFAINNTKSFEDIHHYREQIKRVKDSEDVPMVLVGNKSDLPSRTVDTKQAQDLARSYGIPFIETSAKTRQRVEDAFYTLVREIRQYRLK
KRAS^G12V, sequence (P01116 whole entry G12V): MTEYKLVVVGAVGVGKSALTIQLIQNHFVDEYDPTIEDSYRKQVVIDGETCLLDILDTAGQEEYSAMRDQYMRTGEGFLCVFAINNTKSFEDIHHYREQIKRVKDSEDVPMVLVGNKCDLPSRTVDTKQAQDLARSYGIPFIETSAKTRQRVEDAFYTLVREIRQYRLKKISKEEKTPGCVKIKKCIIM
KRAS^G12D, sequence (P01116 whole entry G12D): as the sequence (P01116 whole entry G12V) above, with V12D counted along it
T2 sequence (P01116 whole entry): as the sequence (P01116 whole entry G12V) above, with V12G counted along it

Structure (SMILES): C=CC(=O)N1CCN(c2nc(=O)n(-c3c(C)ccnc3C(C)C)c3nc(-c4c(O)cccc4F)c(F)cc23)[C@@H](C)C1 [sotorasib]
- IC50 [1]: 5.6 nM
- IC50 [2]: 12.3 nM
- IC50 [3]: 29 nM

Structure (SMILES): C[C@H]1CNCCCN1c1nccc(-c2noc([C@@]3(C)CCCc4sc(N)c(C#N)c43)n2)n1 [compound 1]
- Kd [4]: 25 nM

Structure (SMILES): C#Cc1c(F)ccc2cc(O)cc(-c3ncc4c(N5C[C@H]6CC[C@@H](C5)N6)nc(OC[C@@]56CCCN5C[C@H](F)C6)nc4c3F)c12 [MRTX1133]
- Dmax [5]: < 15%
- IC50 [6]: 0.1 nM
- IC50 [7]: 310 nM
- IC50 [8]: 2.4 nM
- IC50 [9]: > 1000 nM
- IC50 [10]: 1.3 nM
- IC50 [11]: > 1000 nM
- IC50 [12]: > 1000 nM
- Dmax [13]: < 15%
- Dmax [14]: < 15%

Structure (SMILES): C[C@H](Oc1ccnc(-c2noc([C@@]3(C)CCCc4sc(N)c(C#N)c43)n2)n1)[C@@H]1CCCN1C [BI-2865]
- IC50 [2]: 613 nM
- IC50 [15]: > 1000 nM
- IC50 [8]: 251 nM
- IC50 [16]: > 1000 nM
- IC50 [17]: 208 nM
